Source: the NIST ThermoML archive (doi:10.1021/je0340755)

Assay: xn = mol fraction of the nth substance listed
Conditions: 101.3 kPa, Liquid; for viscosity: Capillary tube (Ostwald / Ubbelohde) method

CC(O)C(C)O (centres undefined) [2,3-butanediol] + O
Conditions	mass density [kg/m3]	speed of sound [m/s]	viscosity [mPa·s]
298.15 K, x2 = 0.0546	999.76	1483	41.89
298.15 K, x2 = 0.1435	1001.87	1501.3	36.73
298.15 K, x2 = 0.2458	1004.58	1520.7	30.5
298.15 K, x2 = 0.3539	1007.87	1548.5	24.04
298.15 K, x2 = 0.4502	1011.19	1576.9	18.63
298.15 K, x2 = 0.4989	1013.01	1589.5	16.08
298.15 K, x2 = 0.5503	1014.99	1604.9	13.54
298.15 K, x2 = 0.6581	1019.13	1637.2	8.918
298.15 K, x2 = 0.7518	1021.95	1667.8	5.811
298.15 K, x2 = 0.8626	1021.36	1673.2	3.267
298.15 K, x2 = 0.9092	1017.89	1657.9	2.463
298.15 K, x2 = 0.9148	1017.25	1651.5	2.372
298.15 K, x2 = 0.9248	1015.95	1645.4	2.21
298.15 K, x2 = 0.9305	1015.11	1640.3	2.118
298.15 K, x2 = 0.935	1014.4	–	2.044
298.15 K, x2 = 0.9452	1012.61	–	1.878
298.15 K, x2 = 0.9542	1010.78	1616.9	1.729
298.15 K, x2 = 0.9703	1006.89	–	1.453
298.15 K, x2 = 0.98	1004.1	–	1.278
298.15 K, x2 = 0.9903	1000.7	–	1.083
298.15 K, x2 = 0.9925	999.91	–	1.04
298.15 K, x2 = 0.9951	998.95	1577.9	0.99
308.15 K, x2 = 0.0546	993.26	1446.8	21.57
308.15 K, x2 = 0.1435	995.29	1464.7	19.07
308.15 K, x2 = 0.2458	997.92	1483.6	16.07
308.15 K, x2 = 0.3539	1001.1	1510.7	12.95
308.15 K, x2 = 0.4502	1004.34	1538.4	10.32
308.15 K, x2 = 0.4989	1006.11	1550.7	9.06
308.15 K, x2 = 0.5503	1008.06	1565.8	7.8
308.15 K, x2 = 0.6581	1012.2	1597.3	5.443
308.15 K, x2 = 0.7518	1015.17	1627.1	3.773
308.15 K, x2 = 0.8626	1015.24	1632.4	2.265
308.15 K, x2 = 0.9092	1012.39	1617.5	1.743
308.15 K, x2 = 0.9148	1011.85	1611.2	1.682
308.15 K, x2 = 0.9248	1010.74	1605.3	1.574
308.15 K, x2 = 0.9305	1010.02	1600.3	1.512
308.15 K, x2 = 0.935	1009.4	1597.2	1.463
308.15 K, x2 = 0.9452	1007.83	1588.3	1.352
308.15 K, x2 = 0.9542	1006.24	1577.5	1.254
308.15 K, x2 = 0.9703	1002.81	1570.9	1.074
308.15 K, x2 = 0.98	1000.33	1557.9	0.962
308.15 K, x2 = 0.9903	997.3	1547.6	0.839
308.15 K, x2 = 0.9925	996.59	1543.9	0.812
308.15 K, x2 = 0.9951	995.73	1539.4	0.779
318.15 K, x2 = 0.0546	985.33	1418.4	12.04
318.15 K, x2 = 0.1435	987.34	1436	10.64
318.15 K, x2 = 0.2458	989.9	1454.5	8.953
318.15 K, x2 = 0.3539	993.04	1481.1	7.207
318.15 K, x2 = 0.4502	996.28	1508.2	5.737
318.15 K, x2 = 0.4989	998.08	1520.3	5.036
318.15 K, x2 = 0.5503	1000.07	1535.1	4.339
318.15 K, x2 = 0.6581	1004.28	1566	3.047
318.15 K, x2 = 0.7518	1007.26	1595.2	2.15
318.15 K, x2 = 0.8626	1007.49	1605.3	1.37
318.15 K, x2 = 0.9092	1005.07	1598.9	1.108
318.15 K, x2 = 0.9148	1004.61	1596.7	1.078
318.15 K, x2 = 0.9248	1003.67	1596.3	1.025
318.15 K, x2 = 0.9305	1003.07	1590.4	0.995
318.15 K, x2 = 0.935	1002.56	1583.1	0.969
318.15 K, x2 = 0.9452	1001.27	1580.2	0.915
318.15 K, x2 = 0.9542	999.96	1578.1	0.866
318.15 K, x2 = 0.9703	997.18	1571.6	0.775
318.15 K, x2 = 0.98	995.19	1558.5	0.719
318.15 K, x2 = 0.9903	992.79	1548.2	0.657
318.15 K, x2 = 0.9925	992.23	1544.5	0.644
318.15 K, x2 = 0.9951	991.55	1540	0.627
328.15 K, x2 = 0.0546	971.78	1397.7	7.267
328.15 K, x2 = 0.1435	973.84	1413.9	6.438
328.15 K, x2 = 0.2458	976.48	1431.2	5.44
328.15 K, x2 = 0.3539	979.73	1456.9	4.404
328.15 K, x2 = 0.4502	983.14	1482.2	3.532
328.15 K, x2 = 0.4989	985.04	1494.1	3.117
328.15 K, x2 = 0.5503	987.17	1508.7	2.705
328.15 K, x2 = 0.6581	991.86	1537.6	1.94
328.15 K, x2 = 0.7518	995.6	1567.1	1.412
328.15 K, x2 = 0.8626	997.57	1596.6	0.954
328.15 K, x2 = 0.9092	996.39	1594.5	0.802
328.15 K, x2 = 0.9148	996.11	1592.9	0.784
328.15 K, x2 = 0.9248	995.52	1590.3	0.753
328.15 K, x2 = 0.9305	995.13	1585.9	0.735
328.15 K, x2 = 0.935	994.78	1570.1	0.721
328.15 K, x2 = 0.9452	993.9	1574.2	0.689
328.15 K, x2 = 0.9542	992.98	1573	0.661
328.15 K, x2 = 0.9703	990.96	1570.4	0.607
328.15 K, x2 = 0.98	989.48	1561.6	0.574
328.15 K, x2 = 0.9903	987.67	1553.7	0.539
328.15 K, x2 = 0.9925	987.24	1551.3	0.531
328.15 K, x2 = 0.9951	986.72	1548.3	0.521
338.15 K, x2 = 0.0546	963.14	1379	4.899
338.15 K, x2 = 0.1435	965.14	1394.6	4.365
338.15 K, x2 = 0.2458	967.72	1410.6	3.722
338.15 K, x2 = 0.3539	970.91	1433.2	3.054
338.15 K, x2 = 0.4502	974.25	1457.5	2.49
338.15 K, x2 = 0.4989	976.14	1468.9	2.221
338.15 K, x2 = 0.5503	978.26	1482.2	1.951
338.15 K, x2 = 0.6581	982.97	1510.5	1.447
338.15 K, x2 = 0.7518	986.9	1540	1.089
338.15 K, x2 = 0.8626	989.57	1573.7	0.768
338.15 K, x2 = 0.9092	988.99	1577.3	0.656
338.15 K, x2 = 0.9148	988.8	1576	0.644
338.15 K, x2 = 0.9248	988.39	1576.1	0.621
338.15 K, x2 = 0.9305	988.1	1572.2	0.608
338.15 K, x2 = 0.935	987.85	1559.7	0.598
338.15 K, x2 = 0.9452	987.18	1564.6	0.573
338.15 K, x2 = 0.9542	986.46	1566.2	0.552
338.15 K, x2 = 0.9703	984.86	1566.1	0.513
338.15 K, x2 = 0.98	983.67	1561.3	0.49
338.15 K, x2 = 0.9903	982.18	1556.6	0.463
338.15 K, x2 = 0.9925	981.83	1555.4	0.458
338.15 K, x2 = 0.9951	981.4	1552.7	0.451
